Measurements reported in US11180461B2, “Triazoles as Kv3 inhibitors” (AUTIFONY THERAPEUTICS LIMITED, priority 2012, dated 2021).

What was measured:
[1] = target: T1, human Kv3.1 channels (hKv3.1) (Homo sapiens, UniProt P48547); test: hKv3.1 recombinant cell assay, IonWorks Quattro planar array electrophysiology; type: cell-based; details: comparable = activity for one channel less than 2 fold that for the other
T1 construct: expressed in transfected cells; host or cells: CHO/Gam/E1A-clone22 (CGE22) cells, transduced with BacMam pFBM/human Kv3.1
T1 sequence (P48547 1-511): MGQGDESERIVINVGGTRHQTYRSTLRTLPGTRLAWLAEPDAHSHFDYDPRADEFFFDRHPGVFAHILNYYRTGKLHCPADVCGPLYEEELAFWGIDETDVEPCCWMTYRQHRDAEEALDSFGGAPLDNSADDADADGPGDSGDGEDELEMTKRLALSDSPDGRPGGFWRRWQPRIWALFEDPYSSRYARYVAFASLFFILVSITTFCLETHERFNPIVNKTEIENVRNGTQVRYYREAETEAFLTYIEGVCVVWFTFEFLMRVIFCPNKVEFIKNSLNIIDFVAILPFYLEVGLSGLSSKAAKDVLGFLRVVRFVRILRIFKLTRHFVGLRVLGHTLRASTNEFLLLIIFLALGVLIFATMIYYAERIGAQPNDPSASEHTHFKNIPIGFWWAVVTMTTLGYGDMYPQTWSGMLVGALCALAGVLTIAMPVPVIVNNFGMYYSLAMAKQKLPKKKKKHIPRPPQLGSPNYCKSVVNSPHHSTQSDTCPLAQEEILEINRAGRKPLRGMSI
Excerpt: The ability of the compounds of the invention to modulate the voltage-gated potassium channel subtypes Kv3.2/3.1 may be determined using the following assay. The assay may also be used to determine the ability of compounds of the invention to modulate the voltage-gated potassium channel Kv3.3. Analogous methods may be used to investigate the ability of the compounds of the invention to modulate other channel subtypes.
To assess compound effects on human Kv3.1 channels (hKv3.1), CHO/Gam/E1A-clone22 alias CGE22 cells were transduced using a hKv3.1 BacMam reagent. This cell line was designed to be an improved CHO-K1-based host for enhanced recombinant protein expression as compared to wild type CHO-K1. The cell line was generated following the transduction of CHO-K1 cells with a BacMam virus expressing the Adenovirus-Gam1 protein and selection with Geneticin-G418, to generate a stable cell line, CHO/Gam-A3. CHO/Gam-A3 cells were transfected with pCDNA3-E1A-Hygro, followed by hygromycin-B selection and FACS sorting to obtain single-cell clones. […]
Experiments were conducted at room temperature using IonWorks Quattro™ planar array electrophysiology technology (Molecular Devices Corp.) with PatchPlate™ PPC. […] Planar electrode hole resistances (Rp) were determined by applying a 10 mV voltage step across each well. […]

[2] = Determination of in vivo pharmacokinetic parameters (blood and brain) in rats, with and without Elacridar; details: rat, oral 1 mg/kg
Method: Adult male rats (Charles River, Italy) were dosed with test compound orally at 1 mg/kg (5 ml/kg, in 5% v/v DMSO, 0.5% w/v HPMC in water) and intravenously at 0.5 mg/kg (2 ml/kg, in 5% v/v DMSO 40% w/v PEG400 in saline). After oral administration, blood samples were collected under deep Isofluorane anesthesia from the portal vein and heart of each rat (1 rat per time point). After intravenous administration, serial blood samples were collected from the lateral tail vein of each rat. A further group of rats (n=1 per test compound) received a single intravenous administration of the PgP transport inhibitor, Elacridar (3 mg/kg) shortly before the oral administration of the test compound at 1 mg/kg, as above. Blood and brain samples were collected at a single timepoint of 0.5 h after dose administration for these animals. In all cases, blood samples were collected into potassium EDTA tubes.
Blood and brain samples were assayed for test compound concentration using a method based on protein precipitation with acetonitrile followed by HPLC/MS-MS analysis with an optimized analytical method.
The concentrations of test compound in blood (expressed as ng/ml) and brain (expressed as ng/g) at the different time points following either oral or intravenous dosing were analysed using a non-compartmental pharmacokinetic model using WinNonLin Professional version 4.1. The following parameters were drived:
Intravenous dosing: Maximum concentration over time (Cmax), integrated concentration over time (AUC), clearance (Clb), volume of distribution (Vss) and half-life (t1/2).
Oral dosing: Cmax, time of maximum concentration (Tmax), AUC, bioavailability (F %), fraction absorbed (Fa %), blood to brain ratio (AUC BB), and Fold-change in AUC BB in the presence of Elacridar.

SMILES: Cc1ccc(Oc2ccc(-n3c(C)n[nH]c3=O)cn2)c2c1OCC21CC1 [Example 14, 5-methyl-4-{6-[(7-methylspiro[1-benzofuran-3,1′-cyclopropan]-4-yl)oxy]pyridin-3-yl}-2,4-dihydro-3H-1,2,4-triazol-3-one]
- activity between modulation of Kv3.1 and Kv3.2 channels [1]: comparable activity between modulation of Kv3.1 and Kv3.2 channels
- AUC BB relative to Reference Example 87 and Reference Example 88 of WO2011069951A1 ([2]; AUC BB from blood and brain): at least two fold
- change in AUC BB in the presence of Elacridar ([2]; Elacridar 3 mg/kg i.v., blood and brain at 0.5 h, p-glycoprotein interaction): limited change
